Where a SMILES comes first, the peptide text is derived from it. [ ]: non-standard residue; d: D form. Nle = CCCC[C@H](N)C(=O)O
Target: T1, human PTHR1-H223R (Homo sapiens, UniProt Q03431, H223R)
T1 construct: expressed in transfected cells; host or cells: GHR-10 (HEK-293 stably expressing GloSensor and PTHR1-H223R)
T1 sequence (Q03431 27-593 H223R): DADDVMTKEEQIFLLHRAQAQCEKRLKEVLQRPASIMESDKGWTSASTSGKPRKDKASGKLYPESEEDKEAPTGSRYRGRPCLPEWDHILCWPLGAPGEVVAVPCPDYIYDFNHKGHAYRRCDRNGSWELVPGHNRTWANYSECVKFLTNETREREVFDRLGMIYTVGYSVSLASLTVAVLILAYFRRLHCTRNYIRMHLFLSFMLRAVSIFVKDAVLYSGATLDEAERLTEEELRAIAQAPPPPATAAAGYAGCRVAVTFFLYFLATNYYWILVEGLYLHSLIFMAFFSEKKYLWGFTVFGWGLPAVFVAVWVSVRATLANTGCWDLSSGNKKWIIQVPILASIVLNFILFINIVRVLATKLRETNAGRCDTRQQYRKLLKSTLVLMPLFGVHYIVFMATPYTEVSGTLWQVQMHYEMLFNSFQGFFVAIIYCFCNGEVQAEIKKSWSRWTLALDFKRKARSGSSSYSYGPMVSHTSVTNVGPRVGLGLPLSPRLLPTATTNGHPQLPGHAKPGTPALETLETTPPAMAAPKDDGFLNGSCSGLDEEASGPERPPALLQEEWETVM
Assay: Inverse agonism on basal cAMP signaling in GHR-10 cells
Format: cell-based
Settings: GHR-10 cells, from AUC, representative experiment; for Reduction of basal cAMP, % vehicle, After ligand washout: 26 minutes after washout of unbound ligand; for Reduction of basal cAMP, % vehicle, Ligand @ −6M: peptide 1×10^−6 M for 24 minutes
Procedure: cAMP signaling was assessed in the HEK293-derived or SaOS2-derived cell lines stably expressing the luciferase-based GloSensor™ cAMP reporter (Hattersley et al., Paper presented at: Novel Signaling Mechanisms and Bone Cell Biology 2014; Binkowski et al., Methods in molecular biology. 756:263-271). HEK-293 cells were further transfected to stably express the hPTHR1, hPTHR1-H223R, or hPTHR1-T410P. The cells were seeded into 96-well white plates and were assayed 24 to 48 hours post-confluency. Assays were performed at room temperature in CO2-independent culture media (Life Technologies, Corp., Carlsbad, Calif.) containing 0.1% BSA (CIDB). The cells were pre-loaded with luciferin (0.5 mM in CIDB) for 15 minutes, then PTH peptides were added at varying concentrations. cAMP-dependent luminescence was measured at two-minute intervals using a PerkinElmer Envision plate reader. The time at which maximum luminescence (cps) observed with agonist alone, typically at 10-20 minutes after agonist addition, was used to obtain data from wells containing antagonist with or without agonist, to thus generate antagonist ligand dose-response curves. The resulting cps values were then plotted against ligand concentration using GraphPad Prism 7.0 software and a four-parameter logistics curve fitting equation, which yielded parameters of inhibitory potency (pIC50).
These experiments were performed in HEK-293 cells stably transfected to express the GloSensor™ cAMP reporter along with a constitutively active mutant human PTHR1. The HEK-293 cells stably expressing GloSensor™ cAMP reporter along with a constitutively active mutant human PTHR1-H223R are GHR-10 cells. The HEK-293 cells stably expressing GloSensor™ cAMP reporter along with a constitutively active mutant human PTHR1-T410P are GTP-4 cells. The HEK-293 cells stably expressing GloSensor™ cAMP reporter along with a WT-PTHR1 are GP-2.3 cells. GP-2.3 cells were used as control. […] Effects on basal cAMP signaling over time were assessed during periods of direct ligand addition (FIGS. 15A-15F). The measurements were performed by recording GloSensor™ luminescence as counts per second (cps) using a PerkinElmer Envision plate reader. The data are illustrated in FIGS. 15A-15F. Data are from triplicate wells (means±SEM) of a single experiment representative of two others.
Persistence of the antagonist/inverse agonist effects (prolonged action) as follows. Effects of eight peptides on basal and PTH(1-34)-stimulated cAMP signaling by PTHR-H223R were assessed in GHR-10 cells (HEK-293-derived cells stably expressing glosensor cAMP reporter and PTHR1-H223R). Time courses of changes in cAMP levels were recorded in three consecutive phases:
1) after initial addition of a candidate antagonist/inverse agonist (1×10^−6 M-1×10^−9 M) to cells pre-loaded for […] with luciferin (left column);
2) after removal of unbound inverse agonist by extensive wash-out with buffer and replenishment with fresh luciferin-containing buffer (middle column); and
Control wells were treated with vehicle. GloSensor™ luminescence, as counts per second (cps), was recorded using a PerkinElmer Envision plate reader. Data are from duplicate wells (means±SEM) of a single experiment representative of two others. The results are illustrated in Table 7 and in FIGS. 16A-16C, 17A-17C, 18A-18C, 19A-19C, 20A-20C, 21A-21C, 22A-22C, and 23A-23C.
GHR10 cells were treated with vehicle or vehicle containing the indicated peptide for 24 minutes and cAMP-dependent luminescence was recorded at two-minute intervals. The cells were then washed to remove unbound ligand and media containing fresh luciferin was added, and cAMP luminescence was recorded for another 26 minutes. Percentage reduction was calculated from the area-under-the-curve (AUC) values derived from the time course plots using the equation: […]

Row | Reduction of basal cAMP, % vehicle, After ligand washout | Reduction of basal cAMP, % vehicle, Ligand @ −6M | SMILES
1 | 71 % vehicle | 70 % vehicle | CCCC[C@H](NC(=O)[C@@H](N)CC(C)C)C(=O)N[C@@H](Cc1c[nH]cn1)C(=O)N[C@@H](CCC(N)=O)C(=O)N[C@@H](CC(C)C)C(=O)N[C@H](Cc1c[nH]c2ccccc12)C(=O)N[C@@H](CCCCN)C(=O)N[C@@H](Cc1c[nH]c2ccccc12)C(=O)N[C@H](C(=O)N[C@@H](CCC(N)=O)C(=O)N[C@@H](CC(=O)O)C(=O)N[C@@H](C)C(=O)N[C@@H](CCCNC(=N)N)C(=O)N[C@@H](CCCNC(=N)N)C(=O)N[C@@H](CCCNC(=N)N)C(=O)N[C@@H](C)C(=O)N[C@@H](Cc1c[nH]c2ccccc12)C(=O)N[C@@H](CC(C)C)C(=O)N[C@@H](Cc1c[nH]cn1)C(=O)N[C@@H](CCCCN)C(=O)N[C@@H](CC(C)C)C(=O)N[C@H](C(=O)N[C@@H](C)C(=O)N[C@@H](CCC(=O)O)C(=O)N[C@H](C(=O)N[C@@H](Cc1c[nH]cn1)C(=O)N[C@H](C(=O)N[C@@H](C)C(=O)N[C@@H](CCC(=O)O)C(=O)N[C@H](C(N)=O)[C@@H](C)CC)[C@@H](C)O)[C@@H](C)CC)[C@@H](C)CC)[C@@H](C)CC [compound 1997, Nle8,L11, dW12, W23-LA-PTH(7-36)-1997] (H-L[Nle]HQL[dW]KWIQDARRRAWLHKLIAEIHTAEI-NH2; N-terminus assumed)
2 | 62 % vehicle | 63 % vehicle | CCCC[C@H](NC(=O)[C@H](CC(C)C)NC(=O)[C@H](CCC(N)=O)NC(=O)[C@@H](N)[C@@H](C)CC)C(=O)N[C@@H](Cc1c[nH]cn1)C(=O)N[C@@H](CCC(N)=O)C(=O)N[C@@H](CC(C)C)C(=O)N[C@H](Cc1c[nH]c2ccccc12)C(=O)N[C@@H](CCCCN)C(=O)N[C@@H](Cc1c[nH]c2ccccc12)C(=O)N[C@H](C(=O)N[C@@H](CCC(N)=O)C(=O)N[C@@H](CC(=O)O)C(=O)N[C@@H](C)C(=O)N[C@@H](CCCNC(=N)N)C(=O)N[C@@H](CCCNC(=N)N)C(=O)N[C@@H](CCCNC(=N)N)C(=O)N[C@@H](C)C(=O)N[C@@H](Cc1c[nH]c2ccccc12)C(=O)N[C@@H](CC(C)C)C(=O)N[C@@H](Cc1c[nH]cn1)C(=O)N[C@@H](CCCCN)C(=O)N[C@@H](CC(C)C)C(=O)N[C@H](C(=O)N[C@@H](C)C(=O)N[C@@H](CCC(=O)O)C(=O)N[C@H](C(=O)N[C@@H](Cc1c[nH]cn1)C(=O)N[C@H](C(=O)N[C@@H](C)C(=O)N[C@@H](CCC(=O)O)C(=O)N[C@H](C(N)=O)[C@@H](C)CC)[C@@H](C)O)[C@@H](C)CC)[C@@H](C)CC)[C@@H](C)CC [compound 1999, Nle8, L11, dW12, W23-LA-PTH(5-36)-1999] (H-IQL[Nle]HQL[dW]KWIQDARRRAWLHKLIAEIHTAEI-NH2; N-terminus assumed)
3 | 65 % vehicle | 66 % vehicle | CC[C@H](C)[C@H](NC(=O)[C@H](CCC(=O)O)NC(=O)[C@H](C)NC(=O)[C@@H](NC(=O)[C@H](Cc1c[nH]cn1)NC(=O)[C@@H](NC(=O)[C@H](CCC(=O)O)NC(=O)[C@H](C)NC(=O)[C@@H](NC(=O)[C@H](CC(C)C)NC(=O)[C@H](CCCCN)NC(=O)[C@H](Cc1c[nH]cn1)NC(=O)[C@H](CC(C)C)NC(=O)[C@H](Cc1c[nH]c2ccccc12)NC(=O)[C@H](C)NC(=O)[C@H](CCCNC(=N)N)NC(=O)[C@H](CCCNC(=N)N)NC(=O)[C@H](CCCNC(=N)N)NC(=O)[C@H](C)NC(=O)[C@H](CC(=O)O)NC(=O)[C@H](CCC(N)=O)NC(=O)[C@@H](NC(=O)[C@H](Cc1c[nH]c2ccccc12)NC(=O)[C@H](CCCCN)NC(=O)[C@@H](Cc1c[nH]c2ccccc12)NC(=O)[C@H](CC(C)C)NC(=O)[C@H](CCC(N)=O)NC(=O)[C@H](Cc1c[nH]cn1)NC(=O)[C@H](CCSC)NC(=O)[C@@H](N)CC(C)C)[C@@H](C)CC)[C@@H](C)CC)[C@@H](C)CC)[C@@H](C)O)C(N)=O [compound 2001, L11, dW12, W23-LA-PTH(7-36)-2001] (H-LMHQL[dW]KWIQDARRRAWLHKLIAEIHTAEI-NH2; N-terminus assumed)
4 | 64 % vehicle | 66 % vehicle | CC[C@H](C)[C@H](N)C(=O)N[C@@H](CCC(N)=O)C(=O)N[C@@H](CC(C)C)C(=O)N[C@@H](CCSC)C(=O)N[C@@H](Cc1c[nH]cn1)C(=O)N[C@@H](CCC(N)=O)C(=O)N[C@@H](CC(C)C)C(=O)N[C@H](Cc1c[nH]c2ccccc12)C(=O)N[C@@H](CCCCN)C(=O)N[C@@H](Cc1c[nH]c2ccccc12)C(=O)N[C@H](C(=O)N[C@@H](CCC(N)=O)C(=O)N[C@@H](CC(=O)O)C(=O)N[C@@H](C)C(=O)N[C@@H](CCCNC(=N)N)C(=O)N[C@@H](CCCNC(=N)N)C(=O)N[C@@H](CCCNC(=N)N)C(=O)N[C@@H](C)C(=O)N[C@@H](Cc1c[nH]c2ccccc12)C(=O)N[C@@H](CC(C)C)C(=O)N[C@@H](Cc1c[nH]cn1)C(=O)N[C@@H](CCCCN)C(=O)N[C@@H](CC(C)C)C(=O)N[C@H](C(=O)N[C@@H](C)C(=O)N[C@@H](CCC(=O)O)C(=O)N[C@H](C(=O)N[C@@H](Cc1c[nH]cn1)C(=O)N[C@H](C(=O)N[C@@H](C)C(=O)N[C@@H](CCC(=O)O)C(=O)N[C@H](C(N)=O)[C@@H](C)CC)[C@@H](C)O)[C@@H](C)CC)[C@@H](C)CC)[C@@H](C)CC [compound 2003, L11, dW12, W23-LA-PTH(5-36)-2003] (H-IQLMHQL[dW]KWIQDARRRAWLHKLIAEIHTAEI-NH2; N-terminus assumed)
